By Ki is commonly meant a dissociation constant, usually derived from enzyme kinetics or from competition with a known ligand.

The target of the first assay is T1, human FAAH (Homo sapiens, UniProt O00519).
T1 construct: host or cells: COS-7 cells, transient transfection; 13,000 g membrane fraction solubilised in 1% Triton X-100
T1 sequence (O00519 1-579): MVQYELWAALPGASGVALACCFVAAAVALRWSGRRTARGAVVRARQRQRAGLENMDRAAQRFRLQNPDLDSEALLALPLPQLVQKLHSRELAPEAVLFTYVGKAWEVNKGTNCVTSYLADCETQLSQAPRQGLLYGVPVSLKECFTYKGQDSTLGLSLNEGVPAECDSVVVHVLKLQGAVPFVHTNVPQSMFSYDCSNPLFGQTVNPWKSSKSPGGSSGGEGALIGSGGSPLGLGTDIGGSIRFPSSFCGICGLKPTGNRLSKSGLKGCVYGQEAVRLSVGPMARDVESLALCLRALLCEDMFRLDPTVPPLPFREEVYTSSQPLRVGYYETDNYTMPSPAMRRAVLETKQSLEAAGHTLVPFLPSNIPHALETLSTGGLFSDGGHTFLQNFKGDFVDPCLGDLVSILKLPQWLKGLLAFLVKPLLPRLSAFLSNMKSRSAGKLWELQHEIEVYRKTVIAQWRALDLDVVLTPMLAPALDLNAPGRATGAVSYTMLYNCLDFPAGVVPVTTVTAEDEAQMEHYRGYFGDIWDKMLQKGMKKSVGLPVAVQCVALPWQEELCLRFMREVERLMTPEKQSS
In words: Human FAAH biochemical inhibition assay (AMC arachidonoyl amide fluorescence). The note with it: Table 2, human FAAH (no asterisk); read-out: Activity (Ki). In a few lines:
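Solubilized membrane fraction from COS-7 cells transfected with human FAAH, used at a final 0.05 mg/ml in 50 mM Hepes pH 7.5, 1 mM EDTA, 0.2% Triton X-100. Inhibitor pre-incubated 30 min at room temperature; 20 uM final AMC arachidonoyl amide added, reaction run 4 h at room temperature, fluorescence read.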
Regarding `CC(C)(C)c1ccc(-c2ccc(B(O)O)cc2)cc1` [II-296], the Ki was 10 to 1000 nM.

For the compound `CCCc1ccc(-c2ccc(B(O)O)cc2)cc1` [II-297], the Ki was 10 to 100 nM.

`O=C(c1ccccc1)c1ccc(-c2ccc(B(O)O)cc2)cc1` [II-298]: the Ki lay within 10 to 100 nM.

With `CC(=O)Oc1ccc(-c2ccc(B(O)O)cc2)cc1` [II-299], the Ki lay within 10 to 100 nM.

Turning to `COc1ccc(-c2ccc(B(O)O)cc2)cc1` [II-300], the inhibition constant Ki was in the range of 10 to 100 nM.

As to `OB(O)c1cnn(Cc2ccccc2)c1` [II-302], the Ki was greater than 1000 nM.

Take `NC(=O)c1cccc(-c2cccc(B(O)O)c2)c1` [II-303]: the inhibitory constant (Ki) was greater than 1000 nM.

For `NC(=O)c1ccc(-c2cccc(B(O)O)c2)cc1` [II-304], the Ki was greater than 1000 nM.

In the case of `OB(O)c1ccc(-c2ccccc2F)cc1F` [II-305], the Ki was less than 10 nM.

For the compound `OB(O)c1ccc(-c2ccc(F)cc2)cc1F` [II-306], the Ki is less than 10 nM.

As for `OB(O)c1ccc(OCc2ccccc2)c(Cl)c1` [II-313], the Ki lay within 10 to 100 nM.

For `OB(O)c1ccc(OCc2ccccc2)cc1` [II-314], the Ki lay within 10 to 100 nM.

Take `OB(O)c1cccc(OCc2ccccc2)c1` [II-316]: the Ki was in the range of 10 to 100 nM.

With `OB(O)c1ccc(Oc2ccccc2)cc1` [II-317], the Ki is less than 10 nM.

In the next assay the target is T2, rat FAAH (Rattus norvegicus, UniProt P97612).
T2 construct: Five rat livers are homogenized in five fold volume with ice cold Tris; from tissue; host or cells: rat liver; 40,000 g membrane pellet solubilised in 1% Triton X-100
T2 sequence (P97612 1-579): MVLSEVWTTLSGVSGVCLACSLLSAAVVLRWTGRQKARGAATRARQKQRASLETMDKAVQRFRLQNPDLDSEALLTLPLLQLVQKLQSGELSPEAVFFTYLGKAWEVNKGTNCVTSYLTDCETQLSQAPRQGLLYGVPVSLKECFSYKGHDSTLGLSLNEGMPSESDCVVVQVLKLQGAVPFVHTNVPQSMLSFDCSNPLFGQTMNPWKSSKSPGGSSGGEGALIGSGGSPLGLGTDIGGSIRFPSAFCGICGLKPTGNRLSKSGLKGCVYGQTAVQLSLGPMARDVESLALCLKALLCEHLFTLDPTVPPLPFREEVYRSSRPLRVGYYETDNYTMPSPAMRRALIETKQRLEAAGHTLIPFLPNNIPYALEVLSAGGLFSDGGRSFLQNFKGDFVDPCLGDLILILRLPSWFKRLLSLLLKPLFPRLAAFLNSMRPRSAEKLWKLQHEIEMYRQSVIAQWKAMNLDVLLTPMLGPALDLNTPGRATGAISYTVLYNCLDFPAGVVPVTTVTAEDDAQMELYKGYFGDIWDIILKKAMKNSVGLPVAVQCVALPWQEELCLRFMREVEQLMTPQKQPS
In words: Rat FAAH biochemical inhibition assay (AMC arachidonoyl amide fluorescence). The note with it: Table 1, rat FAAH (asterisk). The text has this: The following assays may be used to determine the inhibition of FAAH by the compounds of the present invention: (1) a fluorescence-based assay for fatty acid amide hydrolase compatible with high-throughput screening as described in Manjunath et al., Analytical Biochemistry (2005) 343:143-151; and (2) a high-throughput screening for the discovery of inhibitors of fatty acid amide hydrolase using a microsome-based fluorescent assay. Wang et al., Biomolecular Screening (2006) 1-9.
Rat FAAH Preparation: Five rat livers are homogenized in five fold volume with ice cold Tris (20 mM pH 8.0) and 0.32 M Sucrose solution via an Ultra Turrax T25 homogenizer. All subsequent preparation steps are carried out at 4° C. The homogenate is centrifuged at 6000 g, for 20 minutes and the pellet, containing nuclear debris and mitochondria is discarded. The supernatant is centrifuged at 40,000 g for 30 minutes. […]
Rat FAAH Biochemical Inhibition Assay; Materials and methods: Rat FAAH biochemical assays are carried out in a 96 well flat bottom black non-treated polystyrene plates (Corning Costar Catalogue #3915). […] FAAH substrate—AMC Arachidonoyl Amide (Cayman Chemicals Company, Catalogue #10005098) The reaction is read in an Envision microtiter plate reader [Excitation filter 355 nm (40 nm bandpass); Emmision filter 460 nm (25 nm bandpass)]. The raw fluorescence is plotted on the y axis and the inhibitor concentration on the x axis to give a dose response inhibition curve. […]
Rat FAAH Biochemical Inhibition Assay; Experimental Protocol: The principle of this assay is the hydrolysis of AMC-Arichodonoyl, a fluorescent analogue of Anandamide, which results in the formation of Arachidonic acid and AMC. The formation of AMC results in an increase in fluorescence (see, for example, Manjunath et al., Analytical Biochemistry (2005) 343:143-151; and Wang et al., Bimolecular Screening (2006) 1-9).
A 0.49 mg/ml Rat liver FAAH solution is made up in FAAH reaction buffer, and 78 ul pipetted into a 96 well plate. […] The microtiter plate is read in the envision plate reader. […]
On to `OB(O)c1cc2ccccc2s1` [Compound I-127], for which the Ki was in the range of 10 to 1000 nM.

For the compound `CCCCCCOc1ccc(B(O)O)cc1` [Compound I-130], the Ki was 10 to 1000 nM.

The same assay, now with this note: Table 2, rat FAAH (asterisk).
`CCCCOc1cccc(B(O)O)c1` [II-315] had a Ki of 10 to 1000 nM.

These data come from patent publication US8329675B2, “Inhibitors of fatty acid amide hydrolase” (Infinity Pharmaceuticals, Inc., priority 2006, dated 2012).
